Measurements reported in US11058700B2, “Macrocyclic lactones and uses thereof as modulators of purinergic receptors” (City of Hope, priority 2015, dated 2021).
Where a SMILES comes first, the peptide text is derived from it. The star is where a group is joined. Cbz = O=C(OCc1ccccc1)*; CH2F = FC*

Legend:
Type in all cases: cell-based, mouse
[1] = test system: 4T1.2 shRNA (NT); test: Synergy between Ivermectin and ATP (CI), non-targeting control cells
Procedure: (§1) FIGS. 5A-5E. CaMKII-independent P2X7-mediated killing. FIG. 5A: qPCR showing the extent of gene knockdown in 4T1.2 cells transfected with shRNA targeting the P2X7 receptor versus non-targeting (NT) control (left panel). […] One million wt, shRNA(NT) and shRNA(P2X7) 4T1.2 cells were plated and incubated for 48 h before evaluation of cell numbers and viability. FIG. 5B: P2X7 knockdown cells are more resistant to ATP and the ATP/IVM combo. 4T1.2 cells were treated for 24 h with 1-3 mM ATP, 6-10 μM Ivermectin, or combinations of ATP and Ivermectin. P2X7 knockdown suppresses the synergy between Ivermectin and high dose ATP, as shown by calculation of combination index (CI) values, see Table 2. FIG. 5C: P2X7 knockdown cells are resistant to ATP/Ivermectin induced membrane permeabilization (Asterisk (*) indicates p<0.05). […] FIG. 5E: Comparison of the protective effects of P2X7, CaMKII, and NADPH oxidases inhibition in short-term (4 h, 32 μM IVM) and long-term (24 h, 12 μM IVM) exposure of 4T1.2 cells to Ivermectin. Asterisk (*) indicates p<0.05 relative to Ivermectin alone controls.
(§2) Cell viability. Cancer cells were plated on 96 well flat-bottom plates and allowed to attach overnight. Cells were then pre-incubated with drugs for 1 h and treated with Ivermectin for 4 h. In the case of 24 h and 48 h incubations the cells, Ivermectin and drugs were plated together. All treatments and controls were done in triplicate wells and results were validated in at least two independent experiments. Following treatment the plates were washed once with PBS and cell viability was measured using the acid phosphatase assay. Briefly, cells were incubated for 1h at 37° C. in 100 μL assay buffer (0.16 M sodium acetate, 0.1% Triton-X-100, supplemented with 4-Nitrophenyl phosphate disodium salt hexahydrate, Sigma Aldrich, at 0.00263 g/ml). Reaction was stopped using 10 μL of 1N sodium hydroxide. Absorption at 405 nm was measured within 10 min using a multi-well plate reader. Mode of cell death and viability of cells in suspension was evaluated using flow cytometry. Briefly, cancer cells were pre-incubated with drugs for 30 min to 1 h, as indicated, treated with Ivermectin for 4 h in 5 ml FACS tubes , washed twice in PBS and stained with PE-conjugated Annexin V and 7AAD (1 μl per 100 μl/200,000 cancer cells) for 15 min.
(§3) Generation of P2X7 receptor knockdown 4T1.2 cells. 4T1.2 cells were transduced using Sigma mission shRNA lentiviral transduction particle with four P2X7 shRNA (NM_011027/TRCN0000068568, NM_011027/TRCN0000068570, NM_011027/TRCN0000068571, NM_011027/TRCN0000068572) or Non-Target control (SHC002V). The viral particles were added to growing cells in the presence of […] POLYBRENE® (Sigma, St Louis, Mo.), and incubated overnight at 37° C. Puromycin selection (2000 ng/ml) was done from third day onwards to select for stably transformed cells.

[2] = test system: 4T1.2 shRNA (P2X7); test: Synergy between Ivermectin and ATP (CI), P2X7 knockdown cells
Procedure: as §1, §2, §3

[3] = test system: 4T1.2 cells; test: Cell viability (acid phosphatase assay) of cancer cells treated with Ivermectin; conditions: cells treated with Ivermectin (32 μM, 4 h in figure legends) in the presence of the agent
Procedure: as §2

[4] = test system: 4T1.2 cancer cells; test: Synergy between Ivermectin and ROS (CompuSyn CI); conditions: 4T1.2, 24 h/48 h
Procedure: FIGS. 2A-2C. Role of NADPH oxidases-generated ROS. […] 4T1.2 cells were labeled with a ROS detection probe and treated for 1 h with 32 μM Ivermectin in the presence of 1 mM EDTA, 5mM NAC, 5 μM DPI, 2500 μunits/ml Apyrase, 3 mM ATP, and 10 μM KN-62. […] Triangles (▴) indicate significant antagonism CI>1.0. […] 4T1.2 cancer cells were irradiated (10-20 kRad) or treated with H2O2 (10-1000 μM), PTX (0.1-1 μM), or DOX (1-4 μM) and incubated with Ivermectin for 24 h/48 h. Circles (●) indicate significant synergy CI<1.0, see Table 1. Asterisk (*) indicates p<0.05 relative to untreated or Ivermectin alone controls, respectively.
as §2, with “All treatments and controls were done in triplicate wells and results were validated in at least two independent experiments.” left out

[5] = test system: murine and human TNBC cells; test: Reactive oxygen species
Procedure: Reactive oxygen and nitrogen species. Cancer cells in suspension were washed with PBS and loaded with 50 μM H2DCFDA (Molecular Probes, Life Technologies, D399) or 5 μM DAF-2 (Cayman Chemical, Catalog #85165) for 30 min at room temperature in the dark. Cells were washed twice with PBS and treated with various doses of Ivermectin in R10 medium. Cells were incubated for 1h in 5 ml FACS tubes at 37° C. and 5% CO2, and immediately analyzed by flow cytometry. Generation of intracellular ROS and NO results in corresponding increases in the GFP fluorescence of the H2DCFDA and DAF-2 probes, respectively.

Compound: Nc1ncnc2c1ncn2[C@@H]1O[C@H](COP(=O)(O)OP(=O)(O)OP(=O)(O)O)[C@@H](O)[C@H]1O [ATP, adenosine triphosphate]
- CI values ([1]; ATP 1 + I 6, 24 h): 1.18
- CI values ([1]; ATP 1 + I 8, 24 h): 1.01
- CI values ([1]; ATP 1 + I 10, 24 h): 1.24
- CI values ([1]; ATP 2 + I 6, 24 h): 1.17
- CI values ([1]; ATP 2 + I 8, 24 h): 1.01
- CI values ([1]; ATP 2 + I 10, 24 h): 1.10
- CI values ([1]; ATP 3 + I 6, 24 h): 0.67
- CI values ([1]; ATP 3 + I 8, 24 h): 0.64
- CI values ([1]; ATP 3 + I 10, 24 h): 0.63
- CI values ([2]; ATP 1 + I 6, 24 h): 1.49
- CI values ([2]; ATP 1 + I 8, 24 h): 1.39
- CI values ([2]; ATP 1 + I 10, 24 h): 1.35
- CI values ([2]; ATP 2 + I 6, 24 h): 1.18
- CI values ([2]; ATP 2 + I 8, 24 h): 1.03
- CI values ([2]; ATP 2 + I 10, 24 h): 1.11
- CI values ([2]; ATP 3 + I 6, 24 h): 0.96
- CI values ([2]; ATP 3 + I 8, 24 h): 0.91
- CI values ([2]; ATP 3 + I 10, 24 h): 0.86

Compound: CCCCC1(C2CCCC2)Cc2cc(OCCCC(=O)O)c(Cl)c(Cl)c2C1=O (centres unmarked) [DCPIB]
- effect on Ivermectin-induced cell death [3]: exacerbates Ivermectin killing

Compound: COc1cccc2c1C(=O)c1c(O)c3c(c(O)c1C2=O)C[C@@](O)(C(=O)CO)C[C@@H]3O[C@H]1C[C@H](N)[C@H](O)[C@H](C)O1 [DOX, doxorubicin]
- CompuSyn CI values ([4]; DOX 1 + Ivermectin 2): .43
- CompuSyn CI values ([4]; DOX 1 + Ivermectin 4): .61
- CompuSyn CI values ([4]; DOX 2 + Ivermectin 2): .42
- CompuSyn CI values ([4]; DOX 2 + Ivermectin 4): .56

Compound: c1ccc2c(c1)[I+]c1ccccc1-2 [DPI, Diphenyleneiodonium]
- effect on Ivermectin-induced cell death [3]: transiently block Ivermectin-induced killing

Compound: C[C@H]1O[C@@H](O[C@H]2[C@@H](O)C[C@H](O[C@H]3[C@@H](O)C[C@H](O[C@H]4CC[C@@]5(C)[C@H](CC[C@@H]6[C@@H]5C[C@@H](O)[C@]5(C)[C@@H](C7=CC(=O)OC7)CC[C@]65O)C4)O[C@@H]3C)O[C@@H]2C)C[C@H](O)[C@@H]1O [Digoxin]
- effect on Ivermectin-induced cell death [3]: demonstrated some protection

Compound: O=C(O)CN(CCN(CC(=O)O)CC(=O)O)CC(=O)O [EDTA]
- effect on Ivermectin-induced cell death [3]: cell death can be suppressed

Compound: N[C@@H](CCC(=O)N[C@@H](CS)C(=O)NCC(=O)O)C(=O)O [GSH]
- blockade of Ivermectin-induced ROS by ROS scavengers [5]: less effective against Ivermectin-induced ROS
- effect on Ivermectin-induced cell death [3]: completely failed to prevent, or even delay, Ivermectin-induced killing

Compound: OO [H2O2]
- CompuSyn CI values ([4]; H2O2 100 + Ivermectin 8): .46
- CompuSyn CI values ([4]; H2O2 100 + Ivermectin 16): .39
- CompuSyn CI values ([4]; H2O2 1000 + Ivermectin 8): .24
- CompuSyn CI values ([4]; H2O2 1000 + Ivermectin 16): .20

Compound: CC(=O)N[C@@H](CS)C(=O)O [NAC]
- blockade of Ivermectin-induced ROS by ROS scavengers [5]: less effective against Ivermectin-induced ROS
- effect on Ivermectin-induced cell death [3]: completely failed to prevent, or even delay, Ivermectin-induced killing

Compound: CN1C(=O)C(Cc2c[nH]c3ccccc23)NC1=S (centres unmarked) [Necrostatin]
- effect on Ivermectin-induced cell death [3]: demonstrated some protection

Compound: Nc1ncnc2c1ncn2[C@@H](C=O)O[C@@H](C=O)COP(=O)(O)OP(=O)(O)OP(=O)(O)O [OxATP]
- effect on Ivermectin-induced cell death [3]: did not observe any protection

Compound: Cc1nc(N=Nc2ccc(S(=O)(=O)O)cc2S(=O)(=O)O)c(COP(=O)(O)O)c(C=O)c1O [PPADs]
- effect on Ivermectin-induced cell death [3]: did not observe any protection

Compound: Nc1c(S(=O)(=O)[O-])cc(Nc2ccc(Cl)cc2)c2c1C(=O)c1ccccc1C2=O.[Na+] [PSB 069]
- effect on Ivermectin-induced cell death [3]: Ivermectin-induced cytotoxicity was suppressed

Compound: CC(=O)O[C@H]1C(=O)[C@@]2(C)[C@H]([C@H](OC(=O)c3ccccc3)[C@]3(O)C[C@H](OC(=O)[C@H](O)[C@@H](NC(=O)c4ccccc4)c4ccccc4)C(C)=C1C3(C)C)[C@]1(OC(C)=O)CO[C@@H]1C[C@@H]2O [PTX, paclitaxel]
- CompuSyn CI values ([4]; PTX 0.1 + Ivermectin 1): .35
- CompuSyn CI values ([4]; PTX 0.1 + Ivermectin 2): .52
- CompuSyn CI values ([4]; PTX 1 + Ivermectin 1): .30
- CompuSyn CI values ([4]; PTX 1 + Ivermectin 2): .51

Compound: CCCN(CCC)S(=O)(=O)c1ccc(C(=O)O)cc1 [Probenecid]
- effect on Ivermectin-induced cell death [3]: enhanced Ivermectin cytotoxicity

Compound: Cc1ccc(C(=O)Nc2ccc(S(=O)(=O)O)c3cc(S(=O)(=O)O)cc(S(=O)(=O)O)c23)cc1NC(=O)c1cccc(NC(=O)Nc2cccc(C(=O)Nc3cc(C(=O)Nc4ccc(S(=O)(=O)O)c5cc(S(=O)(=O)O)cc(S(=O)(=O)O)c45)ccc3C)c2)c1 [Suramin]
- effect on Ivermectin-induced cell death [3]: Ivermectin killing was initially enhanced

Compound: CCO[C@@H]1OC(=O)C[C@@H]1NC(=O)[C@@H]1CCCN1C(=O)[C@@H](NC(=O)c1ccc(N)c(Cl)c1)C(C)(C)C [VX-765]
- effect on Ivermectin-induced cell death [3]: demonstrated some protection

Compound: COC(=O)C[C@H](NC(=O)[C@H](C)NC(=O)[C@@H](NC(=O)OCc1ccccc1)C(C)C)C(=O)CF [Z-vad-fmk] (Cbz-Val-Ala-Asp(OMe)-CH2F)
- effect on Ivermectin-induced cell death [3]: inhibited cell death very effectively

Compound: Apyrase
- effect on Ivermectin-induced cell death [3]: Ivermectin killing was initially enhanced
